Columns and labels:
[1] = Membrane off-binding rate (koff) of FtsA from FRAP; set-up: Off binding rate koff: unit not given here; conditions: Fig. S4i
Text: We could also use the data from these bleaching experiments to quantify the membrane-binding kinetics and diffusion of membrane-bound proteins by analysing the change of the fluorescence profile during recovery.
Equimolar concentrations of Cy3- and Cy5-labelled FtsA, supplemented with 20% unlabelled FtsA were used to study FRET and FRAP. Five pre-bleach frames were acquired, followed by acceptor photobleaching of a rectangular ROI with 40% 641 nm laser power and a dwell size of 1 µs/pixel, 75% overlapping lines. The recovery of the signal or the increase in donor intensity were measured with either two frames or one frame per second.
Bleaching the acceptor dye leads to an increase in the donor intensity, which can be used to quantify the Foerster Resonance energy transfer (FRET)[48]. FRET efficiency was quantified with E%=Ipost/Ipost+Ipre⋅100 , where Ipost is the intensity of the […] and Ipre is the […]. […] To extract the contribution of both processes, we adjusted a routine recently published by Gerganova et al.[33]. In short, the code provides the contribution of both modes of recovery by analysing the shape of the fluorescence recovery profile. […] Contribution of diffusion leads to a change of the slope of the outer borders of the bleached region (S4h right). Thus, by measuring the change of the slope of the border recovery, diffusion and simple on/off binding can be distinguished. We developed “FRAPdiff”, a graphical user interface, which uses the original fit routine by David Rutkowski. It can be used directly on.tiff movies with annotated bleach regions as ImageJ ROIs. In addition, we added optional bleach correction, user selectable projection axis (x or y), and optional mirroring of the recovery profiles, if bleaching was not symmetric. The original fit routine for estimating the recovery and diffusion dynamics can be found at https://github.com/davidmrutkowski/1DReflectingDiffusion. FRAPdiff is available at 10.5281/zenodo.6400639[49] under the GPLv3 open-source license.

FtsZ [2] = conditions: […] Tris-NTA; p-value 3.86 × 10^−4; three repeats
Experimental: (§1) Co-treadmilling of FtsA with FtsZ relies on the dynamic exchange of FtsA on the membrane. […] To investigate the respective contributions of membrane binding kinetics and FtsA self-interaction on the colocalization dynamics with FtsZ, we wanted to create variants of the two FtsA proteins that are permanently attached to the membrane. […] Accordingly, in these experiments the proteins only differ in their tendency to form oligomers.
(§2) To study colocalization of His-tagged variants of FtsA, 0.5–1 µM of Cy5 labelled His-tagged FtsAs were added to the chamber, incubated for 20 min and washed 6x with reaction buffer. […] To control the density of membrane-bound FtsA, SUVs without and with Tris-NTA lipids were mixed to obtain the respective Tris-NTA concentrations. To perform FRET/FRAP experiments, equimolar concentrations of Cy3 and Cy5 labelled His-tagged FtsAs (total 0.5–1 µM) or His-SUMO-Cys were added to a chamber and treated as above. […] FRAP experiments were performed as described before.
Time-lapse videos were first intensity-corrected and contrast-enhanced to avoid bleaching effects and simplify subsequent analysis. To remove contributions of X–Y drift, the videos were processed with the Linear Stack Alignment with SIFT plugin. Proper alignment was checked with the 3TP align plugin (J. A. Parker; Beth Israel Deaconess Medical Center, Boston). Subsequently, regions of interest (ROIs) in the center of the stacks were chosen for colocalization analysis. The Pearson’s correlation coefficient (PCC) was quantified with the Image CorrelationJ 1o plugin. To extract information about the relative ratio of FtsZ/FtsA molecules (slope of linear regression), we also used the Image CorrelationJ 1o plugin. As an output, the plugin provides a scatterplot of FtsZ vs FtsA intensities, to which we fitted a linear slope y=k⋅x+d , where k is the slope and d the offset. The slope was used as an estimate for the ratio of FtsA molecules below FtsZ filaments.

FtsZ [3] = conditions: […] Tris-NTA; p-value […] 10^−4 (vs WT-His6); 7.78 × 10^−5 (vs R286W); three repeats
Experimental: as §1, §2
Treadmilling dynamics, were quantified using an automated image analysis protocol previously developed by our group. To visualize colocalization of the co-treadmilling FtsZ & FtsA filaments, we used dual-colour videos obtained at an acquisition rate of one frame per 2 s. The two channels were aligned using FIJI’s 3TP align plugin. Both channels were then subjected to the image subtraction protocol and colocalization was measured as described above.

FtsA-His6: FtsA WT (1-405) with amphipathic helix replaced by C-terminal His-tag
Off binding rate koff ([1]; 0.10 % Tris-NTA lipids, + FtsZ, summary value): 0.0359 | Off binding rate koff ([1]; 0.10 % Tris-NTA lipids, replicate 1): 0.020 | Off binding rate koff ([1]; 0.10 % Tris-NTA lipids, replicate 2): 0.006 | Off binding rate koff ([1]; 0.10 % Tris-NTA lipids, without FtsZ, summary value): 0.0131 | Off binding rate koff ([1]; 0.40 % Tris-NTA lipids, + FtsZ, summary value): 0.0068 | Off binding rate koff ([1]; 0.40 % Tris-NTA lipids, without FtsZ, summary value): 0.0123 | Off binding rate koff ([1]; 0.60 % Tris-NTA lipids, + FtsZ, summary value): 0.0048 | Off binding rate koff ([1]; 0.60 % Tris-NTA lipids, without FtsZ, summary value): 0.0097 | Off binding rate koff ([1]; […] Tris-NTA lipids, + FtsZ, summary value): 0.0182 | Off binding rate koff ([1]; […] Tris-NTA lipids, replicate 1): 0.0017 | Off binding rate koff ([1]; […] Tris-NTA lipids, replicate 2): 0.018 | Off binding rate koff ([1]; […] Tris-NTA lipids, without FtsZ, summary value): 0.0098 | PCC His-tagged FtsA/FtsZ (FtsZ [2]): 0.13 ± 0.06 | PCCdiff His-tagged FtsA/FtsZ (FtsZ [3]): 0.07 ± 0.04

— paper PMC9098913, “In vitro reconstitution of Escherichia coli divisome activation” (Nature Communications, 2022)
